Measured values as given in ChEMBL document CHEMBL1201862, “PubChem BioAssay data set” (2004).
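Assay format: 96-well plates, 48-hour exposure. The concentration for 50% growth inhibition is given as GI50.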 The source made the active and inactive calls. No stated cut-off is given here; in the data, active = GI50 up to about 1.1 µM and inactive = higher.

Experiments:
Test in all cases: growth of human tumour cells (NCI), 48 h
[1] = tested on: DLD-1
[2] = tested on: DMS-273
[3] = tested on: HOP-18
[4] = tested on: KM-20L2
[5] = tested on: M19-MEL
[6] = tested on: SNB-78
[7] = tested on: XF498
[8] = tested on: LXFL 529
[9] = tested on: RXF 631

SMILES | GI50 [1] | GI50 [2] | GI50 [3] | GI50 [4] | GI50 [5] | GI50 [6] | GI50 [7] | GI50 [8] | GI50 [9]
CC1(C)N=C(N)N=C(N)N1c1ccc(OCCCOc2ccccc2)c(Cl)c1 | 1.51 µM (inactive) | 0.0262 µM (active) | 0.67 µM (active) | 0.0715 µM (active) | 0.147 µM (active) | 0.538 µM (active) | < 0.01 µM (active) |  | 
CC(=O)C(C(=O)C(=O)Nc1cc(Cl)c(Cl)cc1Cl)c1csc(N)n1 (stereo not drawn) | > 100 µM (inactive) | > 100 µM (inactive) |  | > 100 µM (inactive) | > 100 µM (inactive) | > 100 µM (inactive) | > 100 µM (inactive) | > 100 µM (inactive) | > 100 µM (inactive)
CC(=O)OC1(C#N)CC2OC1C1C2N1C(=O)c1ccccc1 (stereo not drawn) | > 100 µM (inactive) |  |  | > 100 µM (inactive) | > 100 µM (inactive) | > 100 µM (inactive) | > 100 µM (inactive) | > 100 µM (inactive) | > 100 µM (inactive)
N#CC(C(=O)CCC(=O)Nc1cccc(Cl)c1)c1ccccc1 (stereo not drawn) | > 100 µM (inactive) | > 100 µM (inactive) | > 100 µM (inactive) | > 100 µM (inactive) | > 100 µM (inactive) | > 100 µM (inactive) |  | > 100 µM (inactive) | > 100 µM (inactive)
Cc1[nH]c2cc([N+](=O)[O-])ccc2c1[N+](=O)[O-] | 22.6 µM (inactive) |  |  | 27.4 µM (inactive) |  |  | 20.7 µM (inactive) | 17.2 µM (inactive) | 
COc1cc2c(oc(=O)c3c4occc4cc(OC)c23)c2cccc(OCc3ccccc3)c12 | > 100 µM (inactive) | 38.9 µM (inactive) | > 100 µM (inactive) | > 100 µM (inactive) | 61.5 µM (inactive) | 37.8 µM (inactive) | 42 µM (inactive) | 64.7 µM (inactive) | 
CCCOC(=O)C1C(c2ccc(OC)cc2)NC(c2ccc(OC)cc2)C(C(=O)OCCC)S1(=O)=O (stereo not drawn) | > 10 µM (inactive) | > 10 µM (inactive) | > 10 µM (inactive) | > 10 µM (inactive) |  | > 10 µM (inactive) | 9.18 µM (inactive) | > 10 µM (inactive) | > 10 µM (inactive)
O=c1nc2occc2cn1C1CC(O)C(CO)O1 (stereo not drawn) | > 100 µM (inactive) | > 100 µM (inactive) | > 100 µM (inactive) | > 100 µM (inactive) | > 100 µM (inactive) | > 100 µM (inactive) | > 100 µM (inactive) | > 100 µM (inactive) | > 100 µM (inactive)
CCCCN[C@H]1C2C3CC4C5CC(C42)C1(C)C53 (stereo partly drawn) | > 100 µM (inactive) | > 100 µM (inactive) | > 100 µM (inactive) | > 100 µM (inactive) | > 100 µM (inactive) | > 100 µM (inactive) |  | > 100 µM (inactive) | 
Cc1cc(NCCCCCCCNc2cc(C)nc3cc(N)ccc23)c2ccc(N)cc2n1 | 28.8 µM (inactive) |  |  | 34.2 µM (inactive) | 32.2 µM (inactive) | 40.3 µM (inactive) | 17.2 µM (inactive) | 26.5 µM (inactive) | 
CCCCCCCCCCCC[N+](CCCCCCCCCCCC)=C1SCCS1 | 8.47 µM (inactive) | 3.44 µM (inactive) | 16.4 µM (inactive) | 5.28 µM (inactive) | 3.29 µM (inactive) | 3.61 µM (inactive) |  | 3.81 µM (inactive) | 11.1 µM (inactive)
Cc1ccc(C)c(NC(=O)C(=O)C2C(=O)N(c3ccccc3)N=C2N)c1 (stereo not drawn) | > 100 µM (inactive) | > 100 µM (inactive) | > 100 µM (inactive) | > 100 µM (inactive) | > 100 µM (inactive) | > 100 µM (inactive) | > 100 µM (inactive) | > 100 µM (inactive) | > 100 µM (inactive)
NC(=S)N1N=C2c3ccccc3CC[C@H]2[C@@H]1c1ccc(Cl)cc1 | 31.7 µM (inactive) | 24.7 µM (inactive) | 18.6 µM (inactive) | 29.8 µM (inactive) | 30.6 µM (inactive) | 87.3 µM (inactive) | 26.4 µM (inactive) | 21.2 µM (inactive) | 
CC(=O)/C=C1/c2ccccc2N(C(C)=O)C1O (stereo not drawn) | > 100 µM (inactive) | > 100 µM (inactive) | > 100 µM (inactive) | > 100 µM (inactive) | > 100 µM (inactive) | > 100 µM (inactive) |  | > 100 µM (inactive) | 
Cc1cc(C)c(N)c(C)c1N | > 100 µM (inactive) | > 100 µM (inactive) | > 100 µM (inactive) | > 100 µM (inactive) | > 100 µM (inactive) | > 100 µM (inactive) |  | > 100 µM (inactive) | 
COc1ccc(CCN2CCC(C#N)(c3ccc(OC)c(OC)c3)CC2)cc1OC | > 100 µM (inactive) | > 100 µM (inactive) | > 100 µM (inactive) | > 100 µM (inactive) | > 100 µM (inactive) |  | 50.2 µM (inactive) | > 100 µM (inactive) | 
C=CCN(N=O)C(=O)NCCCCC(NC(C)=O)C(=O)NCc1ccccc1 (stereo not drawn) |  | > 100 µM (inactive) | 80.7 µM (inactive) | > 100 µM (inactive) | > 100 µM (inactive) |  | > 100 µM (inactive) | > 100 µM (inactive) | > 100 µM (inactive)
C=C(CN(C)C)C(=O)c1cc(C)ccc1C | 2.28 µM (inactive) | 11.7 µM (inactive) | 4.13 µM (inactive) | 23 µM (inactive) | 4.81 µM (inactive) | 26.9 µM (inactive) | 17.9 µM (inactive) | 1.62 µM (inactive) | 
CC12Nc3ccccc3C1=C(c1ccccc1)CC1C(=O)OC(=O)C12 (stereo not drawn) | > 100 µM (inactive) | > 100 µM (inactive) |  | > 100 µM (inactive) | > 100 µM (inactive) | > 100 µM (inactive) | > 100 µM (inactive) | > 100 µM (inactive) | > 100 µM (inactive)
O=C1CCC(=O)N1Sc1ccccc1 | > 100 µM (inactive) | > 100 µM (inactive) |  | > 100 µM (inactive) | > 100 µM (inactive) | > 100 µM (inactive) |  |  | > 100 µM (inactive)
COc1ccc(C2=C(Cl)c3cc(OC)c(OC)cc3C2OC)cc1OC (stereo not drawn) | 17.9 µM (inactive) | 27.4 µM (inactive) | > 100 µM (inactive) | > 100 µM (inactive) | > 100 µM (inactive) | > 100 µM (inactive) | > 100 µM (inactive) | 52.7 µM (inactive) | 
O=NN(CCCl)C(=O)N[C@H]1CCCC[C@@H]1Cl | > 100 µM (inactive) | 62.7 µM (inactive) | > 100 µM (inactive) | > 100 µM (inactive) | 39.7 µM (inactive) |  | > 100 µM (inactive) | > 100 µM (inactive) | 
O=C(/C(=C\c1ccccc1)CN1CCOCC1)c1ccc(Br)cc1 | 1.51 µM (inactive) | 2.88 µM (inactive) | 1.81 µM (inactive) | 2.65 µM (inactive) | 1.73 µM (inactive) | 5.61 µM (inactive) | 4.89 µM (inactive) | 1.28 µM (inactive) | 
c1ccc2c(c1)n1nnnc1c1nnnn21 | > 100 µM (inactive) | > 100 µM (inactive) |  | 93.8 µM (inactive) | > 100 µM (inactive) | 53.6 µM (inactive) | > 100 µM (inactive) | > 100 µM (inactive) | > 100 µM (inactive)
COc1ccc(/C=C2/C(=O)N(C(=O)c3ccccc3O)N=C2C)cc1OC | 0.23 µM (active) |  |  | 24.9 µM (inactive) | 1.29 µM (inactive) | 0.0453 µM (active) | 1.68 µM (inactive) | 0.303 µM (active) | 
O=CN/C=C/c1cccc(O)c1 | > 100 µM (inactive) | > 100 µM (inactive) | > 100 µM (inactive) | > 100 µM (inactive) | > 100 µM (inactive) | > 100 µM (inactive) | > 100 µM (inactive) | > 100 µM (inactive) | 
NC(=O)c1cc(N2CC2)c([N+](=O)[O-])cc1[N+](=O)[O-] [TRETAZICAR] |  | > 100 µM (inactive) |  | > 100 µM (inactive) | > 100 µM (inactive) | > 100 µM (inactive) |  | > 100 µM (inactive) | > 100 µM (inactive)
